Columns and labels:
C57/BL6 mice [1] = assay: DNFB-induced atopic dermatitis model (ear swelling)
[2] = tested on: recipient mouse T-cell alloreactivity; conditions: oral administration; cited from earlier work
K5-CreER.Braf^Ca/+ mice = assay: Topical treatment of Braf mutation-induced skin tumors and inflammation in K5-CreER.Braf^Ca/+ mice; type: in vivo
Procedure: Experiments were conducted that tested whether topical dose trametinib can effectively treat the skin lesions induced by Braf mutation. To do this, Braf mutation was induced in the rear back skins of 2-month old K5-CreER.Braf^Ca/+ mice with 4-OHT, and 7 days later, applied five consecutive daily topical doses of trametinib (see, FIG. 3a).
Braf mutant animals: K14-Cre and K5-CreER mice were provided by Duke University. These animals were crossed with Tyr-CreER.Braf^Ca+/−.PTEN−/− mice which were provided by Duke University. Genotyping were performed via PCR. For topical induction, the back skins of adult animals were shaved and treated with two consecutive daily doses of 4-OHT (Sigma, 5 mg/ml in ethanol).
Mouse tissues: For H&E staining of mouse skins, 5 μm frozen tissue sections were fixed with ethanol and stained with Hematoxylin and Eosin. For immunostaining, 5 μm frozen tissue sections were fixed with cold methanol, incubated with and a primary antibody against CD8 (Tonbo Biosciences), and detected with a secondary antibody conjugated to Dylight 488 (Invitrogen) followed by counterstaining with Hoechst 33342. The images were obtained with the Olympus imaging system.

C57/BL6 mice [3] = assay: Imiquimod (IMQ)-induced psoriasis model
SKH-1Elite mice = assay: UV-induced skin carcinogenesis; type: in vivo
From the text: UV is a primary cause of melanoma and non-melanoma skin cancer. To assess whether topical trametinib inhibits UV-induced skin carcinogenesis, SKH animals (n=10, 5 male and 5 female) were irradiated biweekly with 160 mJ broad band UVB along with pretreatment of solvent or trametinib.
UV induction of skin carcinogenesis: Six weeks old hairless SKH-1Elite mice were obtained from (Jackson Laboratory). Animals were subject to UVB irradiation (160-180 mJ dose) 3 times per week for 20 weeks using rayminder model 2 UVB midband lamp M2D24H and UV513AB digital UVA/UVB (280-400 nm) meter of General Tools. Mouse back skins were pretreated before each UV-radiation with 100 μl of solvent (5% DMSO in 95% acetone:olive oil (3:1 mixture) or 10 to 30 μM trametinib (n=5/group/sex).

thickness of the control (solvent-treated left) ears (C57/BL6 mice [1]; daily topical 0.2-20 μM): not significantly affected | histological appearance of kidney, spleen, and liver tissues (C57/BL6 mice [1]; topical dosage): normal histological appearance | animal weight loss (C57/BL6 mice [3]; 60 μM topical): did not induce animal weight loss | gross morphological changes of internal organs, including liver, kidney and spleen and lymph nodes (C57/BL6 mice [3]; 60 μM topical): did not induce
Structure (SMILES): CC(=O)Nc1cccc(-n2c(=O)n(C3CC3)c(=O)c3c(Nc4ccc(I)cc4F)n(C)c(=O)c(C)c32)c1 [trametinib, N-(3-{3-Cyclopropyl-5-[(2-fluoro-4-iodophenyl)amino]-6,8-dimethyl-2,4,7-trioxo-3,4,6,7-tetrahydropyrido[4,3-d]pyrimidin-1 (2H)-yl}phenyl)acetamide]
clinical appearance of DNFB challenged right ear lobes (C57/BL6 mice [1]; 0.2 μM topical): appeared thickened and inflamed | clinical appearance of DNFB challenged right ear lobes (C57/BL6 mice [1]; 20 μM topical): appeared smooth and normal | DNFB-induced ear swelling (C57/BL6 mice [1]; daily topical 0.2, 2, 20 μM, right ear): reduced by trametinib at a dose response manner | thickened epidermis and dermal cellular infiltration of DNFB-treated skins (histology) (C57/BL6 mice [1]; topical): normalized | recipient mouse T-cell alloreactivity [2]: suppresses recipient mouse T-cell alloreactivity without affecting graft-vs-tumor effects | skin tumors (clinical images) (K5-CreER.Braf^Ca/+ mice; five consecutive daily topical doses starting 7 days after 4-OHT, by day 11): completely regressed | treating oral lesions, topical versus systemic delivery of the same amount (K5-CreER.Braf^Ca/+ mice; topical vs systemic): more effective than systemic delivery | CD8+ immune cells in the dermis (immunostaining) (K5-CreER.Braf^Ca/+ mice; topical, five daily doses): reduced CD8+ immune cells in the dermis | epidermal neoplasia (histological analysis, H&E) (K5-CreER.Braf^Ca/+ mice; topical, five daily doses): regressed epidermal neoplasia | PASI score (C57/BL6 mice [3]; 60 μM topical, day 3): reduced the PASI score | PASI score difference to control (C57/BL6 mice [3]; 60 μM topical, day 5): differences were minimized | IMQ-induced epidermal thickening (C57/BL6 mice [3]; topical): reduces IMQ-induced epidermal thickening | number of tumor nodules (SKH-1Elite mice; 10 μM topical pretreatment before each UVB irradiation): significantly lower number of tumor nodules | number of tumor nodules (SKH-1Elite mice; 30 μM topical pretreatment before each UVB irradiation): significantly lower number of tumor nodules

From patent US11395823B2, “Topical administration of MEK inhibiting agents for the treatment of skin disorders” (Duke University, priority 2018, dated 2022)
